From patent US10800791B2, “Triazole ACC inhibitors and uses thereof” (Gilead Apollo, LLC, priority 2015, dated 2020) come the findings set out here.

In brackets after ≈: the same amount, converted by molar mass. Read-outs that look alike come from different tables or passages of the source.

In one test the target is human (hACC2) (Homo sapiens, UniProt O00763). As to the kind of experiment: In vitro ACC inhibition assay (ADP-Glo), hACC2. The format is biochemical. The conditions noted are these: Table 2b, additional results, 5 nM ACC2, 20 μM ATP, 20 μM acetyl-CoA. The method, then:
The detailed procedure is as follows. […] 10 μL ADP glo reagent was added. […] 20 μL kinase detection reagent was added.
In general terms: ADP-Glo first removes unused ATP, then detects ADP through luciferase.

The subject of another test is C. albicans. Put plainly: Antifungal Activity Assay (broth microtiter MIC), C. albicans. The format is cell-based, Candida albicans. The conditions noted are these: Candida albicans, ATCC90028, 48 h. The procedure, abridged:
(§1)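 Broth microdilution per CLSI M27-A3 in RPMI 1640+MOPS, inoculum 2.5×10^3 CFU/mL final from overnight Sabouraud dextrose agar cultures at 35° C. Compounds diluted from DMSO stock to 128 μg/mL in water. MIC read visually versus growth control at 48 h.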

The next test concerns C. krusei. As to the kind of experiment: Antifungal Activity Assay (broth microtiter MIC), C. krusei. The format is cell-based, Candida krusei. The conditions noted are these: Pichia kudriavzevii, ATCC6258, 48 h. The procedure, abridged: as §1
For another test, the system named is C. parapsilosis. As to the kind of experiment: Antifungal Activity Assay (broth microtiter MIC), C. parapsilosis. The format is cell-based, Candida parapsilosis. The following applies: Lodderomyces parapsilosis, ATCC22019, 48 h. The procedure, abridged:
as §1

A further test has as its system Botrtyis cinerea (Bc). Put plainly: Growth inhibition assay of fungal pathogens, Bc. It is filed as cell-based. The conditions noted are these: 48 h, growth inhibition at 48 hours vs 2% DMSO control. Put shortly: (§2)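 Read-out: OD600 plus visual rating at 24 and 48 h, blank (media + 2% DMSO) subtracted. Percent inhibition was derived at 48 h versus the 2% DMSO control. Spores were grown in 17% V8 broth with compound at 50/10/2 or 2/0.4/0.08 ppm final.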

The subject of test [1] is Collectotrichum graminicola (Cg). As to the kind of experiment: Growth inhibition assay of fungal pathogens, Cg. The format is cell-based. The following applies: 48 h, growth inhibition at 48 hours vs 2% DMSO control. The procedure, abridged:
as §2

The next test concerns Diplodia maydis (Dm). Put plainly: Growth inhibition assay of fungal pathogens, Dm. The format is cell-based. The following applies: Stenocarpella maydis, 48 h, growth inhibition at 48 hours vs 2% DMSO control. The procedure, abridged: as §2
For test [2], the system named is Fusarium moniliforme (Fm). As to the kind of experiment: Growth inhibition assay of fungal pathogens, Fm. The format is cell-based. The following applies: Fusarium verticillioides, 48 h, read-out: Concentration at 90% Inhibition Fm. The procedure, abridged: as §2
Test [3] relates to Fusarium virguliforme (Fv). As to the kind of experiment: Growth inhibition assay of fungal pathogens, Fv. The conditions noted are these: 48 h. It is filed as cell-based. Put shortly: as §2
For test [4], the system named is Phytophthora capsici (Pc). As to the kind of experiment: Growth inhibition assay of fungal pathogens, Pc. It is filed as cell-based. The following applies: 48 h. Put shortly: as §2
The subject of the next test is Rhizoctonia solani (Rs). Put plainly: Growth inhibition assay of fungal pathogens, Rs. It is filed as cell-based. The conditions noted are these: 48 h.
In the next test the test system is Septoria tritici (St). Put plainly: Growth inhibition assay of fungal pathogens, St. The format is cell-based. The following applies: Zymoseptoria tritici, 48 h, growth inhibition at 48 hours vs 2% DMSO control. Put shortly: as §2
The target of a further test is fungal (fACC2) (UniProt Q00955). The conditions noted are these: read-out: fACC2 (in vitro ACC2 Inhibition Assay, IC50); Table 2b, additional results; ADP-Glo, 5 nM ACC2, 20 μM ATP, 20 μM acetyl-CoA.
[5] abbreviates: Table 3b (additional results), ATCC 90028, 3 replicates, MIC recorded at 48 h, read-out: MIC, C. albicans ATCC 90028.
Setting [6] is: Table 3b (additional results), ATCC 6258, 3 replicates, MIC recorded at 48 h, read-out: MIC, C. krusei ATCC 6258.
Where [7] appears, read: Table 3b (additional results), ATCC 22019, 3 replicates, MIC recorded at 48 h, read-out: MIC, C. parapsilosis ATCC 22019.
[8] abbreviates: Botrtyis cinerea, read-out: Concentration at 90% Inhibition Bc.
Setting [9] is: Collectotrichum graminicola, read-out: Concentration at 90% Inhibition Cg.
Setting [10] is: Diplodia maydis, read-out: Concentration at 90% Inhibition Dm.
The mark [11] stands for this setting: Fusarium moniliforme, growth inhibition at 48 hours vs 2% DMSO control.
[12] abbreviates: growth inhibition at 48 hours vs 2% DMSO control, read-out: Concentration at 90% Inhibition Fv.
Where [13] appears, read: growth inhibition at 48 hours vs 2% DMSO control, read-out: Concentration at 90% Inhibition Pc.
Where [14] appears, read: mycelial plugs, growth inhibition at 48 hours vs 2% DMSO control, read-out: Concentration at 90% Inhibition Rs.
Setting [15] is: Septoria tritici, read-out: Concentration at 90% Inhibition St.

Chain of fungal (fACC2) (Q00955 whole entry): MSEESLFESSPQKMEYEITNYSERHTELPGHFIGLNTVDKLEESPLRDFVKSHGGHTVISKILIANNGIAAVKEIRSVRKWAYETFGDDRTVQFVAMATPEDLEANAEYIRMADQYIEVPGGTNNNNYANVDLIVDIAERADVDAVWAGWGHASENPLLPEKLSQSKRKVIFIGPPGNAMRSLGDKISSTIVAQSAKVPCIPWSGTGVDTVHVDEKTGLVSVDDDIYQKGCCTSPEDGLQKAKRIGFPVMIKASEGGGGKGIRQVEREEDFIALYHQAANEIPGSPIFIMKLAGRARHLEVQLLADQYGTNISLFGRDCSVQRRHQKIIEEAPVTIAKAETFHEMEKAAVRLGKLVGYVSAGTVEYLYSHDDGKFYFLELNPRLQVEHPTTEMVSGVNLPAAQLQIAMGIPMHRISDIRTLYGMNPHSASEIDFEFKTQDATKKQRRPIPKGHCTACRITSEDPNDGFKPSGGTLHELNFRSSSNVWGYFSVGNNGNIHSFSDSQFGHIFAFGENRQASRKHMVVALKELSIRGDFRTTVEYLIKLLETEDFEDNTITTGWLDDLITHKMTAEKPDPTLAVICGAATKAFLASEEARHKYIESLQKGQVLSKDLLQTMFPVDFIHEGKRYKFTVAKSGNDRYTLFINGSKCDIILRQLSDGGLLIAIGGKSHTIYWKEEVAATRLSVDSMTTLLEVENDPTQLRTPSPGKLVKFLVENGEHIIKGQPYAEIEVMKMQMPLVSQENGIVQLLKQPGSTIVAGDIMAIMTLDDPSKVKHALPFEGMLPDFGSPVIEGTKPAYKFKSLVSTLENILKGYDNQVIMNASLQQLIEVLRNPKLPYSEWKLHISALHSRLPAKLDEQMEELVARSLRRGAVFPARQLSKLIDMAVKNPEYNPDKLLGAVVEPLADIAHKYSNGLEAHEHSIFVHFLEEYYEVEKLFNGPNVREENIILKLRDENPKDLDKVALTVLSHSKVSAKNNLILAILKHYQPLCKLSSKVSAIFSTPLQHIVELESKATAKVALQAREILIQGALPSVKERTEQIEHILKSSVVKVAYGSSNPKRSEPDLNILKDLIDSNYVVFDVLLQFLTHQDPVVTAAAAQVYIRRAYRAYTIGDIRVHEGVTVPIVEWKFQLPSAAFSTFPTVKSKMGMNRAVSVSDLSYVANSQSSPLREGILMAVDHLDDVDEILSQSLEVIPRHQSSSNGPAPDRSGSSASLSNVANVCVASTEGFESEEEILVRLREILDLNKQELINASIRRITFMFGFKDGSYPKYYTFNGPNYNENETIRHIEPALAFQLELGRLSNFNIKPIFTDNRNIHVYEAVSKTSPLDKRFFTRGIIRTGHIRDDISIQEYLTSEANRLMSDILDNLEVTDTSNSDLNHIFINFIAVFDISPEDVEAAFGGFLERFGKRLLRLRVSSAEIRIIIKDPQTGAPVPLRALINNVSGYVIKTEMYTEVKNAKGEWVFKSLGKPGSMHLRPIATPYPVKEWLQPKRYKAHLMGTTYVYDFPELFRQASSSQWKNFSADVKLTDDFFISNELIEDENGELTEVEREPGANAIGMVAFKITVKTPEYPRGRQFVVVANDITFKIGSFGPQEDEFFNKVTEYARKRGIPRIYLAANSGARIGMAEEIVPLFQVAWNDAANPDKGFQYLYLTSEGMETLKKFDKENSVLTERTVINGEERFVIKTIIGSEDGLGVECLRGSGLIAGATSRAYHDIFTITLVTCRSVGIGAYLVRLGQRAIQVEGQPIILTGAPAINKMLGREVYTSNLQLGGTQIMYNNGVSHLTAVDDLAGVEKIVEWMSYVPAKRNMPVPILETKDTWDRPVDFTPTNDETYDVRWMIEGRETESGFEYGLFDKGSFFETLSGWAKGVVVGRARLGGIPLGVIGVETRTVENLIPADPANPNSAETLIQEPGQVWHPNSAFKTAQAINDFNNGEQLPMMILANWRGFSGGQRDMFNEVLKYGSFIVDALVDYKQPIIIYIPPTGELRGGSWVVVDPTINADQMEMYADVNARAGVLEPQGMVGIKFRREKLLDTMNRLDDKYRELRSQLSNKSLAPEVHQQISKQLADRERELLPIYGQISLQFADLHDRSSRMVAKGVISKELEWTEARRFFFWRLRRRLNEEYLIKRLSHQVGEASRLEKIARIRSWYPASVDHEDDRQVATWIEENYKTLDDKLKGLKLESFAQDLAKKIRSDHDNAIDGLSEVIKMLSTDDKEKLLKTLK
Chain of human (hACC2) (O00763 whole entry): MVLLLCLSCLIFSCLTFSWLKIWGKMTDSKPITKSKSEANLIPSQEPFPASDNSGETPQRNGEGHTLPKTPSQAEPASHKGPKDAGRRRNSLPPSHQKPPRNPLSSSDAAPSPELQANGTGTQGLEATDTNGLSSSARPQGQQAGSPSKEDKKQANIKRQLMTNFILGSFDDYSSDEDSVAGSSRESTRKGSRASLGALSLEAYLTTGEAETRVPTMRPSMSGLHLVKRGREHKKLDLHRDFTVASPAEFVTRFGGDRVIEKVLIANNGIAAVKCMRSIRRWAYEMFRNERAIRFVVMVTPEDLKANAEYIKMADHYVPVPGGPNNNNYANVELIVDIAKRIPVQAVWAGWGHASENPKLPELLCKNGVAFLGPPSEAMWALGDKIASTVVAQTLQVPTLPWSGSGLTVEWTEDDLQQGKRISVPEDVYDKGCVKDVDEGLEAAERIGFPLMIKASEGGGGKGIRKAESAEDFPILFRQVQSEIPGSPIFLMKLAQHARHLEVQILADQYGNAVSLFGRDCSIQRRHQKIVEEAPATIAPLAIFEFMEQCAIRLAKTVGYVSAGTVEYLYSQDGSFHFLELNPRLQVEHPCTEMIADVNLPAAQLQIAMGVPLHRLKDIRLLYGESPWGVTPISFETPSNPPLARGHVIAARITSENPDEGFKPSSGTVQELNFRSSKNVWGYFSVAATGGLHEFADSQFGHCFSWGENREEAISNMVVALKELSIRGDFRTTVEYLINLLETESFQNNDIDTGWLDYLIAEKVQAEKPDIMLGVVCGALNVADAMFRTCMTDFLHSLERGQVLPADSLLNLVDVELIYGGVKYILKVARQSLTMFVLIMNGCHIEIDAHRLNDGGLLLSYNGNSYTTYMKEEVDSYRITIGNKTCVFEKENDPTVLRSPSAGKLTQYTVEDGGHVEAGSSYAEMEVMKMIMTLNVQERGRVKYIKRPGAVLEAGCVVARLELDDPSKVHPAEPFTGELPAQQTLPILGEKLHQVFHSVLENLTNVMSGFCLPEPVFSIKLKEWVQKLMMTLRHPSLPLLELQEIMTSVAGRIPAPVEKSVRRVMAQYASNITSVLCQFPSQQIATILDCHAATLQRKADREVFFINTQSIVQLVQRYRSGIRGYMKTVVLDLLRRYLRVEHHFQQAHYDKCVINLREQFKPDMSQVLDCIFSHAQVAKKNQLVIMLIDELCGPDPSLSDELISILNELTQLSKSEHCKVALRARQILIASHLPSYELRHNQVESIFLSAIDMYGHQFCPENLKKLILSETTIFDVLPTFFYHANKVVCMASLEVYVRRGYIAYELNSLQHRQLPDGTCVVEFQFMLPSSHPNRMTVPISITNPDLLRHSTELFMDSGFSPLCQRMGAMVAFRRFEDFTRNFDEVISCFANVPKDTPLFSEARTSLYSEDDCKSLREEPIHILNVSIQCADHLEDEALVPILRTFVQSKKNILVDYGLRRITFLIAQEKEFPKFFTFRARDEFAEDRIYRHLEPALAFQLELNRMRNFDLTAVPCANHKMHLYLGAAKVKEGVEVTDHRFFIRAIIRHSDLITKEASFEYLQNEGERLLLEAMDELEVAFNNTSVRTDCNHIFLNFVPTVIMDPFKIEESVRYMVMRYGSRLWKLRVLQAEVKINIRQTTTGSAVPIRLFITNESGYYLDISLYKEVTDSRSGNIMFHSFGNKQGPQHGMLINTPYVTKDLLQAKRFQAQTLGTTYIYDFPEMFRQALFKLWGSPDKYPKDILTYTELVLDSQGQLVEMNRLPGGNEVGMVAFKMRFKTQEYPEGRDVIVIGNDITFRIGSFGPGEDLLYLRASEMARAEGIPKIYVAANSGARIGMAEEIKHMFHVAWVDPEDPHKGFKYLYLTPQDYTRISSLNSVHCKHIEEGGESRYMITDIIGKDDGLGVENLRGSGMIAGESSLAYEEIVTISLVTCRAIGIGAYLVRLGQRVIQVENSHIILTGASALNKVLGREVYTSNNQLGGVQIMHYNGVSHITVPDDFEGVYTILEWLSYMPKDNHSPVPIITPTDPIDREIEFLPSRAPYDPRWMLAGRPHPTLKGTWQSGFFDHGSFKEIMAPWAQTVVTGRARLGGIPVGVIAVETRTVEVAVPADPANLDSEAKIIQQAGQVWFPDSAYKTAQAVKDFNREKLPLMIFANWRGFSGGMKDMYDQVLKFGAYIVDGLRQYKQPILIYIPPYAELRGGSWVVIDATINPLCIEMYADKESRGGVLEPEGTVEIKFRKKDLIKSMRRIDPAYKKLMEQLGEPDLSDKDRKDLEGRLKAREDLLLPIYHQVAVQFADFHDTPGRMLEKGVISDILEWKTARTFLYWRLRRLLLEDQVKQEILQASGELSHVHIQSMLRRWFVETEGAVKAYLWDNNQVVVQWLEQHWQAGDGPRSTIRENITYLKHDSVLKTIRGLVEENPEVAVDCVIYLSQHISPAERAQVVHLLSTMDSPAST
Description for fungal (fACC2): An exemplary procedure for the in vitro ACC inhibition assay, which can be used to determine the inhibitory action of compounds of the invention toward either human (hACC2) or fungal (fACC2), follows. The ADP-Glo™ Kinase Assay kit from Promega was used. The ADP-Glo™ Kinase Assay is a luminescent ADP detection assay to measure enzymatic activity by quantifying the amount of ADP produced during an enzyme reaction. The assay is performed in two steps; first, after the enzyme reaction, an equal volume of ADP-Glo™ Reagent is added to terminate the reaction and deplete the remaining ATP. Second, the Kinase Detection Reagent is added to simultaneously convert ADP to ATP and allow the newly synthesized ATP to be measured using a luciferase/luciferin reaction. Luminescence can be correlated to ADP concentrations by using an ATP-to-ADP conversion curve. […] 50 μL of the compound being tested (600 μM in DMSO) was added to a 384-well dilution plate. The compound was diluted 1:3 in succession in DMSO for each row for 11 wells. 0.5 μL ACC2 working solution was added to 384-well white Optiplate assay plate. 0.5 μL diluted compound solution in each column from step 2 was added to assay plate, each row containing 2 replicates. […] The plates were incubated at room temperature for 15 minutes. 5 μL substrate working solution was added to each well to initiate reaction. Final ACC2 reaction concentrations consist of: 5 nM ACC2, 20 μM ATP, 20 μM acetyl-CoA, 12 mM NaHCO3, 0.01% Brij35, 2 mM DTT, 5% DMSO, test compound concentrations: 30 μM, 10 μM, 3.33 μM, 1.11 μM, 0.37 μM, 0.123 μM, 0.0411 μM, 0.0137 μM, 0.00457 μM, 0.00152 μM, and 0.00051 μM. Plates were incubated at room temperature for 60 minutes. 10 μL ADP glo reagent was added. Plates were incubated at room temperature for 40 minutes. 20 μL kinase detection reagent was added. Plates were incubated at room temperature for 40 minutes, and then read on a Perkin Elmer EnVision 2104 plate reader for luminescence as Relative Light Units (RLU).
Data for each concentration, as well as the positive and negative controls were averaged, and the standard deviation calculated. Percent inhibition was calculated by the formula: 100×(average negative control−compound)/(average negative control−average positive control). The IC50 for each compound was calculated by fitting the data with a non-linear regression equation: Y=Bottom+(Top−Bottom)/(1+10 ((Log IC50−X)*HillSlope)), where X is the log of compound concentration and Y is percent inhibition.

Regarding `COc1ccc(C#N)cc1[C@H](Cn1c(=O)n(C(C)(C)C(=O)NC(C)C)c(=O)c2c(C)c(-n3nccn3)sc21)OCC(C)(C)C#N` [Compound I-223], the IC50 – broadly, the point on the concentration scale where inhibition reaches its midpoint – at human (hACC2) is 10 to 40 nM; at fungal (fACC2), 1 to 5 nM. The figures for the MIC with C. albicans (setting [5]), in the test on C. krusei (setting [6]) and in the test on C. parapsilosis (setting [7]) were 0.25 to 1 µg/mL (≈ 0.395 to 1.58 µM), 0.25 to 1 µg/mL (≈ 0.395 to 1.58 µM) and 1.01 to 2 µg/mL (≈ 1.6 to 3.16 µM), respectively. Moreover, the IC90 was 10 µg/mL (≈ 15.8 µM) in the test with Botrtyis cinerea (Bc) (setting [8]); > 50 µg/mL in test [1] (setting [9]); > 50 µg/mL with Diplodia maydis (Dm) (setting [10]); 0.4 µg/mL (≈ 0.632 µM) in test [2] (setting [11]); 10 µg/mL (≈ 15.8 µM) in test [3] (setting [12]); > 50 µg/mL in test [4] (setting [13]). Further, the values for the IC90 in the test with Rhizoctonia solani (Rs) (setting [14]) and in the test on Septoria tritici (St) (setting [15]) were 2 µg/mL (≈ 3.16 µM) and > 50 µg/mL, respectively.

Consider `COc1ccc(Br)cc1[C@H](Cn1c(=O)n(C(C)(C)C(=O)NC(C)C)c(=O)c2c(C)c(-n3nccn3)sc21)OCC(C)(C)C#N` [Compound I-224], for which the results for the concentration for half-maximal inhibition (IC50) on human (hACC2) and at fungal (fACC2) were 5 to 10 nM and 1 to 5 nM, respectively. Further, the MIC – broadly, the least concentration at which growth counts as inhibited – in the test on C. albicans (setting [5]) fell in the range of 0.25 to 1 µg/mL (≈ 0.364 to 1.46 µM); with C. krusei (setting [6]), 0.25 to 1 µg/mL (≈ 0.364 to 1.46 µM); with C. parapsilosis (setting [7]), 1.01 to 2 µg/mL (≈ 1.47 to 2.91 µM). For the same molecule, the IC90 with Botrtyis cinerea (Bc) (setting [8]) is 0.4 µg/mL (≈ 0.583 µM); in test [1] (setting [9]) it was 2 µg/mL (≈ 2.91 µM); in the test on Diplodia maydis (Dm) (setting [10]) it was 2 µg/mL (≈ 2.91 µM); in test [2] (setting [11]) it was 0.08 µg/mL (≈ 0.117 µM); in [3] (setting [12]), 0.4 µg/mL (≈ 0.583 µM); in test [4] (setting [13]), > 50 µg/mL. Further, the IC90 with Rhizoctonia solani (Rs) (setting [14]) and with Septoria tritici (St) (setting [15]) was > 50 µg/mL each time.

As to `COc1ccc(F)cc1[C@@](O)(CO)Cn1c(=O)n(C(C)(C)C(=O)NC(C)C)c(=O)c2c(C)c(-n3nccn3)sc21` [Compound I-225], the IC50 at human (hACC2) was in the range of 5 to 10 nM; at fungal (fACC2) it was 1 to 5 nM. The MIC in the test with C. albicans (read-out: MIC, C. albicans ATCC 90028, Table 3b (additional results), 3 replicates, MIC recorded at 48 h) lay within 0.25 to 1 µg/mL (≈ 0.435 to 1.74 µM); with C. krusei (read-out: MIC, C. krusei ATCC 6258, Table 3b (additional results), 3 replicates, MIC recorded at 48 h), 0.25 to 1 µg/mL (≈ 0.435 to 1.74 µM); in the test on C. parapsilosis (read-out: MIC, C. parapsilosis ATCC 22019, Table 3b (additional results), 3 replicates, MIC recorded at 48 h) it was 1.01 to 2 µg/mL (≈ 1.76 to 3.48 µM). The IC90 in the test with Botrtyis cinerea (Bc) (read-out: Concentration at 90% Inhibition Bc, Botrtyis cinerea) was 0.4 µg/mL (≈ 0.696 µM); in [1] (read-out: Concentration at 90% Inhibition Cg, Collectotrichum graminicola), 0.08 µg/mL (≈ 0.139 µM); with Diplodia maydis (Dm) (read-out: Concentration at 90% Inhibition Dm, Diplodia maydis), 0.4 µg/mL (≈ 0.696 µM); in test [2], 0.08 µg/mL (≈ 0.139 µM); in test [3] (read-out: Concentration at 90% Inhibition Fv, Fusarium virguliforme, growth inhibition at 48 hours vs 2% DMSO control), 0.4 µg/mL (≈ 0.696 µM); in test [4] (read-out: Concentration at 90% Inhibition Pc, Phytophthora capsici, growth inhibition at 48 hours vs 2% DMSO control) it was 2 µg/mL (≈ 3.48 µM). In addition, the IC90 in the test on Rhizoctonia solani (Rs) (read-out: Concentration at 90% Inhibition Rs, Rhizoctonia solani, mycelial plugs, growth inhibition at 48 hours vs 2% DMSO control) was 0.08 µg/mL (≈ 0.139 µM); with Septoria tritici (St) (read-out: Concentration at 90% Inhibition St, Septoria tritici), > 50 µg/mL.

On to `Cc1c(-n2nccn2)sc2c1c(=O)n(C(C)(C)C(=O)NC(C)C)c(=O)n2C[C@H](OCCO)c1cc(F)ccc1O` [Compound I-226], for which the half-maximal inhibitory concentration (IC50) on human (hACC2) fell in the range of 10 to 40 nM; at fungal (fACC2), 0.3 to 1 nM. In addition, the minimum inhibitory concentration (MIC) lay within 2.01 to 4 µg/mL (≈ 3.5 to 6.96 µM) in the test with C. albicans (setting [5]), 1.01 to 2 µg/mL (≈ 1.76 to 3.48 µM) with C. krusei (setting [6]) and 2.01 to 4 µg/mL (≈ 3.5 to 6.96 µM) with C. parapsilosis (setting [7]). In addition, the IC90 in the test with Botrtyis cinerea (Bc) (setting [8]) is 10 µg/mL (≈ 17.4 µM); in [1] (setting [9]), 10 µg/mL (≈ 17.4 µM); with Diplodia maydis (Dm) (setting [10]), > 50 µg/mL; in test [2] (setting [11]), 2 µg/mL (≈ 3.48 µM); in [3] (setting [12]) it was 10 µg/mL (≈ 17.4 µM); in test [4] (setting [13]), > 50 µg/mL. Further, the results for the IC90 in the test on Rhizoctonia solani (Rs) (setting [14]) and with Septoria tritici (St) (setting [15]) were 2 µg/mL (≈ 3.48 µM) and > 50 µg/mL, respectively.

For `COc1ccc(Cl)cc1[C@H](Cn1c(=O)n(C(C)(C)C(=O)NC(C)C)c(=O)c2c(C)c(-n3nccn3)sc21)OCC(C)(C)C#N` [Compound I-227], the concentration for half-maximal inhibition (IC50) against human (hACC2) lay within 10 to 40 nM; at fungal (fACC2), 1 to 5 nM. For the same molecule, the minimum inhibitory concentration (MIC) was 0.25 to 1 µg/mL (≈ 0.389 to 1.56 µM) in the test with C. albicans (setting [5]), 0.25 to 1 µg/mL (≈ 0.389 to 1.56 µM) with C. krusei (setting [6]) and 1.01 to 2 µg/mL (≈ 1.57 to 3.11 µM) with C. parapsilosis (setting [7]). For the same molecule, the IC90 with Botrtyis cinerea (Bc) (setting [8]) is 2 µg/mL (≈ 3.11 µM); in test [1] (setting [9]) it was 2 µg/mL (≈ 3.11 µM); in the test on Diplodia maydis (Dm) (setting [10]), 2 µg/mL (≈ 3.11 µM); in test [2] (setting [11]) it was 2 µg/mL (≈ 3.11 µM); in test [3] (setting [12]), 2 µg/mL (≈ 3.11 µM); in test [4] (setting [13]) it was > 50 µg/mL. The IC90 in the test on Rhizoctonia solani (Rs) (setting [14]) was 2 µg/mL (≈ 3.11 µM); in the test with Septoria tritici (St) (setting [15]), > 50 µg/mL.
